Source: paper PMC8087159 (Bioconjugate chemistry, 2021)
“Also recorded” adds a separate entry of the source. Where two headings read alike, the source gives them in different places.

Columns and labels:
[1] = 3.5 μmol per mouse oral gavage; for original drug in the eye / liver accumulation of N-retinylamides: 2 and 16 h; for N-retinylamides in the eye: 16 h
RPE65 [2] = target: RPE65 (Bos taurus, UniProt Q28175); assay: RPE microsome retinoid isomerase assay; type: biochemical, Bovine; details: RPE microsomes, 0.5–10 μM compound, 10 μM all-trans-retinol, 1 h
Caco-2 cell monolayer = Caco-2 cell monolayer transport; type: in vitro ADME, human; details: 500 μM in PBS pH 6 on apical side, 37 °C, within 24 h; compared with Ret-NH2
ARPE19 cells = assay: ARPE19 cell uptake; type: in vitro ADME, human; details: 10 μM, 16 h; compared with Ret-NH2
RPE65 [3] = target: T1, RPE65 (Homo sapiens, UniProt Q16518); type: cell-based; details: NIH3T3 cells, 4.5 μM drug, 10 μM all-trans-retinol, 16 h
T1 sequence (Q16518 1-533): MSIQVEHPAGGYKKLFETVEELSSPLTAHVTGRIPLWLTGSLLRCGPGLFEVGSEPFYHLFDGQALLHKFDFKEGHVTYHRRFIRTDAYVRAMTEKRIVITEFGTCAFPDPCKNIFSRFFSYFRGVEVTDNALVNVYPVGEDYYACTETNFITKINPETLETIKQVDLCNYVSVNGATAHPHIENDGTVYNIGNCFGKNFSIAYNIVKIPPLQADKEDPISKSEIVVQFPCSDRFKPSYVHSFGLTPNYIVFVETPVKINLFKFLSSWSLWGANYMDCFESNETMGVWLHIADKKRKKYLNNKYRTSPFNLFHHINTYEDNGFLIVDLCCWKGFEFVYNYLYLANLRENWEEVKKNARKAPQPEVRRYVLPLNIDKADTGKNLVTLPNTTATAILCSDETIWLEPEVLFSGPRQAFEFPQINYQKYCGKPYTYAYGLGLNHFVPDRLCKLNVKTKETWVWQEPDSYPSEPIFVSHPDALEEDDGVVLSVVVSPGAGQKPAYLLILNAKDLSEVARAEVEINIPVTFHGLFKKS

RPE65 [4] = target: T2, RPE65 (Mus musculus, UniProt Q91ZQ5); assay: In vivo RPE65 inhibition; details: 1.75 μmol/mouse oral gavage 16 h before bleach 10 min at 7000 lx; 24 h in the dark
T2 sequence (Q91ZQ5 2-533): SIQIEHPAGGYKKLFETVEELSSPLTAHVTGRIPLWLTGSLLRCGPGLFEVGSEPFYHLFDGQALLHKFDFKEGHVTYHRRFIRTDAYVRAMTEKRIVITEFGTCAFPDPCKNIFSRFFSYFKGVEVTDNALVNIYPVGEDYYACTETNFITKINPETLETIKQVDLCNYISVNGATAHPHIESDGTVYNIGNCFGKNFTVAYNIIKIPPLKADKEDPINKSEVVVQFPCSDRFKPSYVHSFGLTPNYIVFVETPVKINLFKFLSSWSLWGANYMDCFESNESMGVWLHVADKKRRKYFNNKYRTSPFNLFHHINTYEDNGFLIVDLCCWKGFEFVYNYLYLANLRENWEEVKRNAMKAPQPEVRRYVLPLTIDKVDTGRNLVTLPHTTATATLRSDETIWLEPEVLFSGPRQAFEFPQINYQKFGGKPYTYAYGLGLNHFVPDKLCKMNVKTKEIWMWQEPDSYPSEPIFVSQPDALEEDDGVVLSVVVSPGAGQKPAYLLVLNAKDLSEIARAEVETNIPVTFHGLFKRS

[5] = tested on: light-induced retinal degeneration in Abca4^−/−Rdh8^−/− mice; assay: Retinal histology; type: in vivo; details: drug before intense light exposure; 7 days after light exposure
[6] = tested on: retinal function of C57BL/6J WT mice; assay: ERG scotopic a-waves in wild-type mice after drug treatment; type: in vivo; details: 1.75 μmol per mouse gastric gavage 16 h prior to ERG
Storage stability = type: physicochemical
[7] = mouse, in vivo, po
[8] = cited from earlier work
[9] = tested on: light-induced retinal degeneration in Abca4^−/−Rdh8^−/− mice; assay: ERG scotopic a-waves after light-induced retinal degeneration; details: 1.9 μmol/mouse gastric gavage 16 h prior to light illumination; measured 7 days after drug administration and illumination

RPE65 (Bos taurus, UniProt Q28175), sequence (Q28175 whole entry): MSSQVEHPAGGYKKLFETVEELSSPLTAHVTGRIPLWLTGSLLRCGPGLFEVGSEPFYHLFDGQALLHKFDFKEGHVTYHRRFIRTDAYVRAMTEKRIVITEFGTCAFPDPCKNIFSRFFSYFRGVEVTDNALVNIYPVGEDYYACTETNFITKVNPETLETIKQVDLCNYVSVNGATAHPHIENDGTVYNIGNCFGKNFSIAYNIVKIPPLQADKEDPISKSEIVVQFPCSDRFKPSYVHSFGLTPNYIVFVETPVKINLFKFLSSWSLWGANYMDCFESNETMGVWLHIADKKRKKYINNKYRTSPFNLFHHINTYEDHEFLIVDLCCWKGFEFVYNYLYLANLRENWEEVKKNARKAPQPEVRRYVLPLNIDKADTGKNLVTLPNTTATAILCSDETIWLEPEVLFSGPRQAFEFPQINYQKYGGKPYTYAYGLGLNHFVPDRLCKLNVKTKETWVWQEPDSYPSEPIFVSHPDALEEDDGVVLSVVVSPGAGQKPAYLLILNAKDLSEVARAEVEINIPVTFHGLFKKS

In the case of `CC1=C(/C=C/C(C)=C/C=C/C(C)=C/CNC(=O)[C@@H](N)Cc2ccccc2)C(C)(C)CCC1` [RF], the “original drug in the eye” value [1] is reported as “detected only at 2 h”, the “N-retinylamides in the eye” value [1] is reported as “comparable to that of Ret-NH2” and the “inhibition of RPE65 activity (11-cis-retinol production)” value (“inhibition of RPE65 activity” for short) (RPE65 [2]) is reported as “minor inhibitory effects”. The “transport through the Caco-2 monolayer” value (Caco-2 cell monolayer) was “significantly higher transport” and the “uptake by ARPE19 cells” value (ARPE19 cells) was “higher uptake”.

With `CC1=C(/C=C/C(C)=C/C=C/C(C)=C/CNC(=O)CN)C(C)(C)CCC1` [RG] the “liver accumulation of N-retinylamides” value [1] was “lower liver accumulations of N-retinylamides than did RF and RL”, the “original drug in the eye” value [1] was “detected in the eyes at 2 and 16 h at relatively high concentrations” and the “N-retinylamides in the eye” value [1] was “comparable to that of Ret-NH2”.

In the case of `CC1=C(/C=C/C(C)=C/C=C/C(C)=C/CNC(=O)[C@@H](N)CC(C)C)C(C)(C)CCC1` [RL], the “original drug in the eye” value [1] is reported as “detected only at 2 h” and the “N-retinylamides in the eye” value [1] is reported as “comparable to that of Ret-NH2”.

For `CC1=C(/C=C/C(C)=C/C=C/C(C)=C/CNC(=O)CNC(=O)[C@@H](N)C(C)C)C(C)(C)CCC1` [RVG, Ret-NH2-L-valylglycine amide], the 11-cis-retinol production (RPE65 [3]) was “easily detected”, the “liver accumulation of N-retinylamides” value [1] was “lower liver accumulations of N-retinylamides than did RF and RL” and the “original drug in the eye” value [1] was “detected only at 16 h”. The “N-retinylamides in the eye” value [1] was “no detectable N-retinylamides”, the “regeneration of 11-cis-retinal in the eye” value (RPE65 [4]) was “greater regeneration of 11-cis-retinal” and the “retinal structure by histology (H&E)” value [5] was “maintained an intact retinal structure”. For the same molecule, the “inhibition of RPE65 activity” value (RPE65 [2]) was “did not affect significant inhibition; also recorded: no inhibitory effect”, the “transport through the Caco-2 monolayer” value (Caco-2 cell monolayer) was “significantly higher transport” and the “recovery of retinal function (ERG)” value [6] was “rapid recovery of retinal function”. For the same molecule, the degradation on storage (Storage stability; stored in a desiccator under vacuum at room temperature for 2 months) was “Less than 5%” and the “uptake by ARPE19 cells” value (ARPE19 cells) was “higher uptake”.

With `CC1=C(/C=C/C(C)=C/C=C/C(C)=C/CNC(=O)[C@@H](N)C(C)C)C(C)(C)CCC1` [RV] the “N-retinylamides in the eye” value [7] was “no detectable N-retinylamides”, the “liver accumulation of N-retinylamides” value [7] was “lower liver accumulations of N-retinylamides than did RF and RL” and the “original drug in the eye” value [7] was “detected in the eyes at 2 and 16 h at relatively high concentrations”.

For `CC1=C(/C=C/C(C)=C/C=C/C(C)=C/CN)C(C)(C)CCC1` [Ret-NH2, Retinylamine, reference compound], the 11-cis-retinol production (RPE65 [3]) was “virtually ablated 11-cis-retinol production”, the “original drug in the eye” value [1] was “No Ret-NH2 was detected at 2 and 16 h in the eye” and the “N-retinylamide concentration in liver” value ([1]; 2 h) was “much higher liver concentrations”. The “regeneration of 11-cis-retinal in the eye” value (RPE65 [4]) was “much lower concentration of 11-cis-retinal than the untreated controls”, the “inhibition of RPE65 activity” value (RPE65 [2]) was “concentration-dependent inhibition” and the decomposed on storage (Storage stability; desiccator under vacuum at room temperature, within 1 week) was 95%.

In the case of `Nc1nc2c(ncn2COCCO)c(=O)[nH]1` [acyclovir], the “oral bioavailability (Fo)” value ([8]; in vivo, po) is listed as ~ 16%.

For `COc1ccc(OC)c(C(O)CN)c1` (stereo not drawn) [desglymidodrine], the oral bioavailability ([8]; desglymidodrine to midodrine) is listed as 50%.

In the case of Emixustat-L-Val-Gly amide [EVG], the “ERG activities (scotopic a-waves)” value [9] is reported as “only slight decrease of ERG activities”.
